Where two headings read alike, the source gives them in different places.
Key:
Format in all cases: in vivo
Aulacophora femoralis = test: whole plant or invertebrate; settings: in Cucumis sativus, 168 h, read-out: mortality (control efficacy)
Description: The test solution has been prepared as described in biological test example 1.
Cucumber leaves were immersed in a test solution that had been diluted to a predetermined concentration with water. The leaves were air-dried and then put in a plastic cup containing sterilized black soil. 5 Aulacophora femoralis second instar larvae were released in the cup.

Musca domestica = test: whole plant or invertebrate; settings: 48 h, read-out: activity (mortality in %)
Method: (§1) Solvent: dimethyl sulfoxide
Prior to the assay, a piece or kitchen sponge is soaked with a mixture of sugar and compound solution and placed into a container. 10 adults (Musca domestica) are placed into the container and closed with a perforated lid. After 2 days, mortality in % is determined. 100% means that all the flies have been killed; 0% means that none of the flies have been killed.

Lucilia cuprina larvae = test: whole plant or invertebrate; settings: 48 h, read-out: activity (mortality in %)
Method: as §1
Approximately 20-30 (Lucilia cuprina larvae) are transferred into a test tube containing 1 cm^3 of minced horse meat and 0.5 ml aqueous dilution of test compound. After 2 days, mortality in % is determined.

Ctenocephalides felis = test: whole plant or invertebrate; settings: 48 h, read-out: activity (mortality in %)
Method: as §1
Approximately 10 to 15 adult unfed (Ctenocepahlides felis) are placed in flea chambers. […] The blood chamber is heated to 37° C. whereas the flea chamber is kept at room temperature. After 2 days, mortality in % is determined. 100% means that all the fleas have been killed; 0% means that none of the fleas have been killed.

Boophilus microplus [1] = test: whole plant or invertebrate; settings: Rhipicephalus microplus, 168 h, read-out: activity (mortality in %; 100% means all eggs infertile)
Method: as §1
Five adult engorged female ticks (Boophilus microplus) are injected with compound solution into the abdomen. Ticks are transferred into replica plates and incubated in a climate chamber for a period of time. Egg deposition of fertile eggs is monitored. After 7 days, mortality in % is determined. 100% means that all eggs are infertile; 0% means that all eggs are fertile.

Boophilus microplus [2] = test: Boophilus microplus test (dip); settings: Rhipicephalus microplus, 168 h, read-out: activity (mortality in %)
Method: as §1
Eight to ten adult engorged female Boophilus microplus ticks are placed in perforated plastic beakers and immersed in aqueous compound solution for one minute. Ticks are transferred to a filter paper in a plastic tray. Egg deposition of fertile eggs is monitored after. After 7 days, mortality in % is determined. 100% means that all the ticks have been killed; 0% means that none of the ticks have been killed.

Phaedon cochleariae = Phaedon cochleariae test (spray application); settings: in Brassica rapa, foliar, 168 h, read-out: activity (mortality in %)
Method: Solvent: 78.0 parts by weight of acetone • • 1.5 parts by weight of dimethylformamide Emulsifier: 0.5 parts by weight of alkylaryl polyglycolether
To produce a suitable preparation of active compound, 1 part by weight of active compound is mixed with the stated amount of solvent and emulsifier, and the concentrate is diluted with emulsifier-containing water to the desired concentration. Chinese cabbage (Brassica pekinesis) leaf-disks are sprayed with a preparation of the active ingredient of the desired concentration. Once dry, the leaf disks are infested with mustard beetle larvae (Phaedon cochleariae).
After 7 days, mortality in % is determined. 100% means that all beetle larvae have been killed and 0% means that none of the beetle larvae have been killed.

Spodoptera frugiperda = Spodoptera frugiperda test (spray application); settings: 168 h, application rate 500 g/ha, sprayed maize leaf sections, larvae, 7 days
Description: Solvent: 78.0 parts by weight acetone • 1.5 parts by weight dimethylformamide Wetting agent 0.5 parts by weight alkylarylpolyglcolether
To produce a suitable preparation of the active compound, 1 part by weight of active compound is mixed with the stated amount of solvent and emulsifier, and the concentrate is dilutes with emulsifier-containing water to the desired concentration.
Maize (Zea mais) leaf sections are sprayed with a preparation of the active ingredient of the desired concentration. Once dry, the leaf sections are infested with fall armyworm larvae (Spodoptera frugiperda). After 7 days, mortality in % is determined. 100% means that all caterpillars have been killed and 0% means that none of the caterpillars have been killed.

Tetranychus urticae = test: Test on Tetranychus urticae (spray test); settings: active compound concentration 100 ppm; adult mites on pinto bean sprayed; 7 days
Method: The test solution has been prepared as described in biological test example 1. 50 to 100 adult Tetranychus urticae were placed on pinto bean leaves at true leaf stage having two main leaves that had been grown in a pot (6 cm diameter). After 1 day, a generous amount of the test solution which has been diluted with water to the predetermined concentration was sprayed thereto using a spray gun.
After keeping the pot in a green house for 7 days, acaricidal ratio was calculated. 100% means that all the mites have been killed; 0% means that none of the mites have been killed.

Structure (SMILES) | mortality at 100 ppm (Aulacophora femoralis) [%] | mortality at 100 ppm (Musca domestica) [%] | mortality at 100 ppm (Lucilia cuprina larvae; in Equus caballus) [%] | mortality at 100 ppm (Ctenocephalides felis; in Bos taurus) [%] | mortality at 0.02 mg (Boophilus microplus [1]) [%] | also measured
O=C1OCc2cc(C3=NOC(c4cc(Cl)cc(Cl)c4)(C(F)(F)F)C3)ccc21 (centres unmarked) [Example 1-2, 5-[5-(3,5-dichlorophenyl)-5-(trifluoromethyl)-4,5-dihydroisoxazol-3-yl]-2-benzofuran-1(3H)-one] | 100 | ≥ 80 | ≥ 80 | ≥ 80 | ≥ 80 | mortality at 100 ppm (Boophilus microplus [2]): ≥ 80%; mortality at 500 g/ha (Phaedon cochleariae): 80%; mortality at 500 g/ha (Spodoptera frugiperda): ≥ 80%
O=C1c2ccc(C3=NOC(c4cc(Cl)cc(Cl)c4)(C(F)(F)F)C3)cc2CN1Cc1ccccn1 (centres unmarked) [Example 1-58] |  |  |  |  |  | mortality (acaricidal ratio) (Tetranychus urticae): at least 98%
FC(F)(F)C1(c2cc(Cl)cc(Cl)c2)CC(c2ccc3c(c2)COC3)=NO1 (centres unmarked) [Example 1-131, 5-(3,5-dichlorophenyl)-3-(1,3-dihydro-2-benzofuran-5-yl)-5-(trifluoromethyl)-4,5-dihydroisoxazole] | 100 | ≥ 80 | ≥ 80 | ≥ 80 | ≥ 80 | 
CC(=O)N1Cc2ccc(C3=NOC(c4cc(Cl)cc(Cl)c4)(C(F)(F)F)C3)cc2C1 (centres unmarked) [Example 1-151, 1-{5-[5-(3,5-dichlorophenyl)-5-(trifluoromethyl)-4,5-dihydroisoxazol-3-yl]-1,3-dihydro-2H-isoindol-2-yl}ethanone] | 100 |  | ≥ 80 |  | ≥ 80 | 
CC(=O)N1Cc2cc(C3=NOC(c4cc(Cl)cc(Cl)c4)(C(F)(F)F)C3)ccc2C1=O (centres unmarked) [Example 1-221, 2-acetyl-5-[5-(3,5-dichlorophenyl)-5-(trifluoromethyl)-4,5-dihydroisoxazol-3-yl]-2,3-dihydro-1H-isoindol-1-one] | 100 |  |  |  |  | 
N=C1OCc2cc(C3=NOC(c4cc(Cl)cc(Cl)c4)(C(F)(F)F)C3)ccc21 (centres unmarked) [Example 1-232, 5-[5-(3,5-dichlorophenyl)-5-(trifluoromethyl)-4,5-dihydroisoxazol-3-yl]-2-benzofuran-1(3H)-imine] | 100 | ≥ 80 | ≥ 80 | ≥ 80 | ≥ 80 | 
CC(=O)/N=C1\c2ccc(C3=NOC(c4cc(Cl)cc(Cl)c4)(C(F)(F)F)C3)cc2CN1Cc1ccccn1 (centres unmarked) [Example 1-235, N-[(1E)-5-[5-(3,5-dichlorophenyl)-5-(trifluoromethyl)-4,5-dihydroisoxazol-3-yl]-2-(pyridin-2-ylmethyl)-2,3-dihydro-1H-isoindol-1-ylinden]acetamide] |  | ≥ 80 | ≥ 80 | ≥ 80 | ≥ 80 | 
N#Cc1ccc2cc(C3=NOC(c4cc(Cl)cc(Cl)c4)(C(F)(F)F)C3)ccc2n1 (centres unmarked) [Example 1-255, 6-[5-(3,5-dichlorophenyl)-5-(trifluoromethyl)-4,5-dihydroisoxazol-3-yl]quinolin-2-carbonitrile] |  | ≥ 80 | ≥ 80 | ≥ 80 | ≥ 80 | 
CC(=O)NC1CCc2cc(C3=NOC(c4cc(Cl)cc(Cl)c4)(C(F)(F)F)C3)ccc21 (centres unmarked) [Example 3-3, N-{5-[5-(3,5-dichlorophenyl)-5-(trifluoromethyl)-4,5-dihydroisoxazol-3-yl]-2,3-dihydro-1H-inden-1-yl}acetamide] | 100 | ≥ 80 | ≥ 80 | ≥ 80 | ≥ 80 | mortality at 100 ppm (Boophilus microplus [2]): ≥ 80%
CCNC(=O)NC1CCc2cc(C3=NCC(c4cc(Cl)cc(Cl)c4)(C(F)(F)F)C3)ccc21 (centres unmarked) [Example 3-112, 1-{5-[3-(3,5-dichlorophenyl)-3-(trifluoromethyl)-3,4-dihydro-2H-pyrrol-5-yl]-2,3-dihydro-1H-inden-1-yl}-3-ethylurea] | 100 |  |  |  |  | mortality at 100 ppm (Musca domestica; application rate 100 ppm, adults, 2 days): ≥ 80%; mortality at 100 ppm (Lucilia cuprina larvae; application rate 100 ppm, larvae in minced horse meat, 2 days): ≥ 80%; mortality at 100 ppm (Ctenocephalides felis; application rate 100 ppm in cattle blood, adult unfed fleas, 2 days): ≥ 80%; mortality at 0.02 mg (Boophilus microplus [1]; application rate 20 μg/animal injected, adult engorged female ticks, 7 days): ≥ 80%; mortality at 100 ppm (Boophilus microplus [2]; application rate 100 ppm, adult engorged female ticks immersed one minute, 7 days): ≥ 80%
NC1CCCc2cc(C3=NOC(c4cc(Cl)cc(Cl)c4)(C(F)(F)F)C3)ccc21 (centres unmarked) [Example 3-211, 6-[5-(3,5-dichlorophenyl)-5-(trifluoromethyl)-4,5-dihydroisoxazol-3-yl]-1,2,3,4-tetrahydronaphthalen-1-amine] | 100 |  |  |  | ≥ 80 | 
CCNC(=O)N1CCc2cc(C3=NOC(c4cc(Cl)cc(Cl)c4)(C(F)(F)F)C3)ccc21 (centres unmarked) [Example 3-638, 5-[5-(3,5-dichlorophenyl)-5-(trifluoromethyl)-4,5-dihydroisoxazol-3-yl]-N-ethyl-2,3-dihydro-1H-indol-1-carboxamide] | 100 | ≥ 80 | ≥ 80 | ≥ 80 | ≥ 80 | 

— patent US20110071141A1, “Pesticidial Condensed-Ring Aryl Compounds” (Bayer CropScience AG, priority 2008, published 2011)
